How the values were obtained:
HAase = biological target: T1, HAase (Homo sapiens, UniProt P38567); assay: Compatibility study of HAase and antibiotic in solution: HAase activity; format: biochemical; conditions: 15 min room temperature; for Final concentration of HAase (units/ml) 150: HAase added to 150 units/ml; for Final concentration of HAase (units/ml) 500: HAase added to 500 units/ml; for Final concentration of HAase (units/ml) 6000: HAase added to 6000 units/ml; for Final concentration of HAase (units/ml) 2000: HAase added to 2000 units/ml; for interference with the activity of HAase: antibiotic and HAase in physiological saline
T1 construct: made in house
T1 sequence (P38567 36-482): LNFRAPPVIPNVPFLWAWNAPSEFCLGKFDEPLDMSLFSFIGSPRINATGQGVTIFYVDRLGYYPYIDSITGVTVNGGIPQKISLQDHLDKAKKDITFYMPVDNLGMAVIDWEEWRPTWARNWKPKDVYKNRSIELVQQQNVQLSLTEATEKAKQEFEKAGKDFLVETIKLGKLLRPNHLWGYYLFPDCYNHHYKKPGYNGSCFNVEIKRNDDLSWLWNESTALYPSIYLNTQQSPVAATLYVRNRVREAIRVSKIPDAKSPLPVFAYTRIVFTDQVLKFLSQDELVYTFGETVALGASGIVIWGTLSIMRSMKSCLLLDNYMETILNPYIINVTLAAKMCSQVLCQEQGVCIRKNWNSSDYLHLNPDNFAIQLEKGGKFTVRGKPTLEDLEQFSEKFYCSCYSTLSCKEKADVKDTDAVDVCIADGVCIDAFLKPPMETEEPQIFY
Protocol: “HAase activity refers to the ability of HAase to catalytically cleave hyaluronic acid. The Chinese Pharmacopoeia provides a method for determining the HAase activity, indirectly by measuring the amount of remaining higher-molecular-weight hyaluronic acid substrate after the enzyme is allowed to catalytically cleave hyaluronic acid at 37° C. for 30 min. A standard reference solution can be used in the assay to determine the relative activity (in units) of any HAase. In-vitro assays for the determination of HAase are known in the art. Exemplary assays include micro-turbidimetric assay described below, which indirectly measures the cleavage of hyaluronic acid by HAase by detecting an insoluble precipitate formed when uncleaved hyaluronic acid binds to serum albumin. The reference standard can be used, for example, to generate a standard curve, so as to determine the activity of the tested HAase in units.
The compatibility of HAase and an antibiotic was studied by preparing a solution comprising the two substances. A dry Meropenem power for injection was dissolved in physiological saline to give a concentration of 5 mg/ml and 50 mg/ml, and then HAase was added to give a final concentration of 150, 500, 2000, and 6000 units/ml respectively. After preparation, the solution was left to stand at room temperature for 15 min. The appearance of the solution was observed, and the concentration of HAase was determined.
The compatibility of HAase and an antibiotic was studied by preparing a solution comprising the two substances. A dry Ceftriaxone sodium power for injection was dissolved in physiological saline to give a concentration of 50 mg/ml and 250 mg/ml, and then HAase was added to give a final concentration of 150, 500, 2000, and 6000 units/ml respectively. After preparation, the solution was left to stand at room temperature for 15 min. The appearance of the solution was observed, and the concentration of HAase was determined.
The compatibility of HAase and an antibiotic was studied by preparing a solution comprising the two substances. A dry Azithromycin power for injection was dissolved in physiological saline to give a concentration of 10 mg/ml and 100 mg/ml, and then HAase was added to give a final concentration of 150, 500, 2000, and 6000 units/ml respectively. After preparation, the solution was left to stand at room temperature for 15 min. The appearance of the solution was observed, and the concentration of HAase was determined.
The compatibility of HAase and an antibiotic was studied by preparing a solution comprising the two substances. A dry Cefradine powder for injection was dissolved in physiological saline to give a concentration of 50 mg/ml and 250 mg/ml, and then HAase was added to give a final concentration of 150, 500, 2000, and 6000 units/ml respectively. After preparation, the solution was left to stand at room temperature for 15 min. The appearance of the solution was observed, and the concentration of HAase was determined.
The compatibility of HAase and an antibiotic was studied by preparing a solution comprising the two substances. A dry Teicoplanin powder for injection was dissolved in physiological saline to give a concentration of 10 mg/ml and 70 mg/ml, and then HAase was added to give a final concentration of 150, 500, 2000, and 6000 units/ml respectively. After preparation, the solution was left to stand at room temperature for 15 min. The appearance of the solution was observed, and the concentration of HAase was determined.
The compatibility of HAase and an antibiotic was studied by preparing a solution comprising the two substances. A dry Ceftazidime powder for injection was dissolved in physiological saline to give a concentration of 20 mg/ml and 200 mg/ml, and then HAase was added to give a final concentration of 150, 500, 2000, and 6000 units/ml respectively. After preparation, the solution was left to stand at room temperature for 15 min.

intestinal flora = assay: Effects of administration routes on the diversity of intestinal flora in mice (16S rDNA sequencing, OTU); format: in vivo; conditions: C57BL/6 mice, feces
Source text: 12 SPF grade C57BL/6 mice were used for each antibiotic mode, and divided into two groups, each having 6 mice. The two groups include an oral administration group, and a subcutaneous administration group combined with recombinant human HAase. A blank control group including 6 mice was also set. The mice in the oral administration group were given the model antibiotic solution by oral gavage for five consecutive days. The mice in the subcutaneous administration group combined with recombinant human HAase were given the same dose of model antibiotic as that in the oral administration group by subcutaneous administration for five consecutive days. The feces of mice in each group were collected on the 1 st, 2nd, 3rd, 4th, 5th, 6th, 8th, 10th and 14th days after five consecutive days of administration, and stored at −80° C., for detecting the microbial diversity later. The fecal samples of each group were amplified and sequenced by 16S rDNA sequencing. After DNA extraction, PCR amplification and gene sequencing, the changes of intestinal bacterial diversity in each group of mice were analyzed. The relative species diversity of the test group was calculated, with the OUT value of the blank control group in each day as a reference, as shown in Table 33.

[1] = antibiotic 30 mg/ml in physiological saline
[2] = antibiotic 300 mg/ml in physiological saline
[3] = in combination with recombinant human HAase for subcutaneous administration, five consecutive days, D1 after administration
[4] = in combination with recombinant human HAase for subcutaneous administration, five consecutive days, D2
[5] = in combination with recombinant human HAase for subcutaneous administration, five consecutive days, D3
[6] = in combination with recombinant human HAase for subcutaneous administration, five consecutive days, D4
[7] = in combination with recombinant human HAase for subcutaneous administration, five consecutive days, D5
[8] = in combination with recombinant human HAase for subcutaneous administration, five consecutive days, D6
[9] = in combination with recombinant human HAase for subcutaneous administration, five consecutive days, D8
[10] = in combination with recombinant human HAase for subcutaneous administration, five consecutive days, D10
[11] = in combination with recombinant human HAase for subcutaneous administration, five consecutive days, D14
[12] = oral administration for five consecutive days, D1 after administration
[13] = oral administration for five consecutive days, D2
[14] = oral administration for five consecutive days, D3
[15] = oral administration for five consecutive days, D4
[16] = oral administration for five consecutive days, D5
[17] = oral administration for five consecutive days, D6
[18] = oral administration for five consecutive days, D8
[19] = oral administration for five consecutive days, D10
[20] = oral administration for five consecutive days, D14
[21] = antibiotic 20 mg/ml in physiological saline
[22] = antibiotic 200 mg/ml in physiological saline

| Structure (SMILES) | interference with the activity of HAase (HAase) | Relative abundance of OUT (operational taxonomic units) (intestinal flora; [3]) [%] | Relative abundance of OUT (operational taxonomic units) (intestinal flora; [4]) [%] | Relative abundance of OUT (operational taxonomic units) (intestinal flora; [5]) [%] | Relative abundance of OUT (operational taxonomic units) (intestinal flora; [6]) [%] | Relative abundance of OUT (operational taxonomic units) (intestinal flora; [7]) [%] | Relative abundance of OUT (operational taxonomic units) (intestinal flora; [8]) [%] | Relative abundance of OUT (operational taxonomic units) (intestinal flora; [9]) [%] | Relative abundance of OUT (operational taxonomic units) (intestinal flora; [10]) [%] | Relative abundance of OUT (operational taxonomic units) (intestinal flora; [11]) [%] | Relative abundance of OUT (operational taxonomic units) (intestinal flora; [12]) [%] | Relative abundance of OUT (operational taxonomic units) (intestinal flora; [13]) [%] | Relative abundance of OUT (operational taxonomic units) (intestinal flora; [14]) [%] | Relative abundance of OUT (operational taxonomic units) (intestinal flora; [15]) [%] | Relative abundance of OUT (operational taxonomic units) (intestinal flora; [16]) [%] | Relative abundance of OUT (operational taxonomic units) (intestinal flora; [17]) [%] | Relative abundance of OUT (operational taxonomic units) (intestinal flora; [18]) [%] | Relative abundance of OUT (operational taxonomic units) (intestinal flora; [19]) [%] | Relative abundance of OUT (operational taxonomic units) (intestinal flora; [20]) [%] | other results |
| --- | --- | --- | --- | --- | --- | --- | --- | --- | --- | --- | --- | --- | --- | --- | --- | --- | --- | --- | --- | --- |
| C[C@@H](O)[C@H]1C(=O)N2C(C(=O)O)=C(S[C@@H]3CN[C@H](C(=O)Nc4cccc(C(=O)O)c4)C3)[C@H](C)[C@H]12 [Ertapenem] | not interfere with the activity of HAase | 30.5 | 30.9 | 28.9 | 31.2 | 28.2 | 33.2 | 36.8 | 36.7 | 39.3 | 16.2 | 13.1 | 10.4 | 14.6 | 16.0 | 15.3 | 15.8 | 20.9 | 24.1 | Final concentration of HAase (units/ml) 150 (HAase; [1]): 152 units/ml; Final concentration of HAase (units/ml) 500 (HAase; [1]): 501 units/ml; Final concentration of HAase (units/ml) 6000 (HAase; [1]): 6121 units/ml; Final concentration of HAase (units/ml) 500 (HAase; [2]): 511 units/ml; Final concentration of HAase (units/ml) 2000 (HAase; [2]): 1974 units/ml; Final concentration of HAase (units/ml) 6000 (HAase; [2]): 5990 units/ml |
| CC(C)(O/N=C(\C(=O)N[C@@H]1C(=O)N2C(C(=O)[O-])=C(C[n+]3ccccc3)CS[C@H]12)c1csc(N)n1)C(=O)O [Ceftazidime] | does not interfere with the activity of HAase | 35.5 | 34.0 | 34.3 | 33.7 | 34.3 | 35.1 | 41.6 | 42.3 | 51.3 | 22.8 | 20.9 | 20.4 | 21.1 | 19.2 | 22.3 | 26.8 | 29.6 | 32.5 | Final concentration of HAase (units/ml) 150 (HAase; [21]): 145 units/ml; Final concentration of HAase (units/ml) 500 (HAase; [21]): 501 units/ml; Final concentration of HAase (units/ml) 2000 (HAase; [21]): 2026 units/ml; Final concentration of HAase (units/ml) 6000 (HAase; [21]): 6027 units/ml; Final concentration of HAase (units/ml) 150 (HAase; [22]): 148 units/ml; Final concentration of HAase (units/ml) 500 (HAase; [22]): 488 units/ml; Final concentration of HAase (units/ml) 2000 (HAase; [22]): 2001 units/ml; Final concentration of HAase (units/ml) 6000 (HAase; [22]): 5981 units/ml |

From patent US20250099557A1, “ANTIBIOTIC PHARMACEUTICAL COMPOSITION CAPABLE OF SUBCUTANEOUS ADMINISTRATION” (SHANGHAI BAO PHARMACEUTICALS CO., LTD., priority 2021, published 2025)
